Test results taken from patent publication US8273737B2, “Quinolizidinone M1 receptor positive allosteric modulators” (Merck Sharp & Dohme Corp., priority 2008, dated 2012).

Target: T1, acetylcholine muscarinic M1 receptor (Homo sapiens, UniProt P11229)
T1 construct: expressed in transfected cells; host or cells: CHOnfat (CHO cells, Geneticin-selected)
T1 sequence (P11229 1-460): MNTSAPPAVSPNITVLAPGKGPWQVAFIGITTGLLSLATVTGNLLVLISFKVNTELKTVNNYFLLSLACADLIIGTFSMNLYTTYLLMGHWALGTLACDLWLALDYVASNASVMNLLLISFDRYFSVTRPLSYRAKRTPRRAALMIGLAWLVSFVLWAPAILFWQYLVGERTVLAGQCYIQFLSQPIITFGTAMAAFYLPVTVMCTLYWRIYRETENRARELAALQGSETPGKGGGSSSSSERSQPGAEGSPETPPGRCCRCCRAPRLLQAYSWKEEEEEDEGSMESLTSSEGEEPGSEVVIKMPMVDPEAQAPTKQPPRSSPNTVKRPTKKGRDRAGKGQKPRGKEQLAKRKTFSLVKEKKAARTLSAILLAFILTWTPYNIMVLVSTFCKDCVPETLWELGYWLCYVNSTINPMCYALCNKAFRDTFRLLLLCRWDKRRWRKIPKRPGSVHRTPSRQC
Assay: muscarinic FLIPR assay: potentiation of acetylcholine-stimulated intracellular Ca2+ in CHOnfat/hM1 cells
Type: cell-based
Conditions: 4 min preincubation, then EC20 acetylcholine (3 nM final), read-out: IP Value (inflection point)
Protocol: The assay studies the effect of one or several concentrations of test compounds on basal or acetylcholine-stimulated Ca^2+ levels using FLIPR.
Compounds are prepared and subjected to a preincubation period of 4 min. Thereafter, a single EC20 concentration of acetylcholine is added to each well (3 nM final). The intracellular Ca^2+ level of each sample is measured and compared to an acetylcholine control to determine any modulatory activity.
Cells: CHOnfat/hM1, hM2, hM3 or hM4 cells are plated 24 hr before the assay at a density of 18,000 cells/well (100 μL) in a 384 well plate. CHOnfat/hM1 and CHOnfat/hM3 Growth Medium: 90% DMEM (Hi Glucose); 10% HI FBS; 2 mM L-glutamine; 0.1 mM NEAA; Pen-Strep; and 1 mg/ml Geneticin, are added. For M2Gqi5CHOnfat and M4Gqi5CHOnfat cells, an additional 600 μg/ml hygromycin is added.
Equipment: 384 well plate, 120 μL addition plate; 96-well Whatman 2 ml Uniplate Incubator, 37° C., 5% CO2; Skatron EMBLA-384 Plate Washer; Multimek Pipetting System; Genesis Freedom 200 System; Mosquito System; Temo Nanolitre Pipetting System; and FLIPR^384 Fluorometric Imaging Plate Reader System are used.
Buffers. Assay Buffer: Hanks Balanced Salt Solution, with 20 mM Hepes, 2.5 mM Probenecid (Sigma P-8761) first dissolved in 1N aqueous NaOH, 1% Bovine Serum Albumin (Sigma A-9647). Dye Loading Buffer: Assay Buffer plus 1% Fetal Bovine Serum and Fluo-4AM/Pluronic Acid Mixture. 2 mM Fluo-4AM ester stock in DMSO (Molecular Probes F-14202) Concentration of 2 μM in buffer for a final concentration of 1 μM in Assay. 20% Pluronic Acid Solution stock, with a concentration of 0.04% in Buffer, 0.02% in Assay.
65 μL of 2 mM Fluo-4AM are mixed with 130 μL of 20% Pluronic Acid. The resulting solution and 650 μL FBS is added to the assay buffer for a total volume of 65 mL. Positive Controls: 4-Br-A23187: 10 mM in DMSO; final concentration 10 μM. Acetylcholine: 10 mM in water, working stock at both 20 μM and 30 μM in assay buffer, final concentration of 10 μM. This is used to check the maximum stimulation of the CHOK1/hM1 cells. 20 μM (2×) acetylcholine is added in the preincubation part of the assay, and the 30 μM (3×) stock is added in the second part. (EC20)Acetylcholine: 10 mM in water, working stock of 9 nM (3×), and final concentration in assay is 3 nM. This is used after the preincubation with test compounds. Addition of the EC20 Acetylcholine to each well with a test compound will ascertain any modulator activity. 24 wells contain 3 nM Acetylcholine alone as a control.
Determining Activity of Putative Compounds:
Screening Plate Compounds are titrated in 96-well plates (columns 2-11), 100% DMSO, started at a concentration of 15 mM (150× stock concentration), and 3-fold serial dilutions using Genesis Freedom200 System. Four 96-well plates are combined into a 384-well plate using Mosquito Nanolitre Pipetting System by transferring 1 μl of serial diluted compounds to each well, and 1 mM acetylcholine (100× stock concentration) were added as a control. Using Temo, 49 μl assay buffer is added to each well of the 384-well plate right before assay.
In a 96-well Whatman 2 ml Uniplate, 9 nM Acetylcholine (3×) is pipetted into wells corresponding to the screening compounds and into control wells. The 30 μM acetylcholine control (3×) is added into control wells and the 3× agonist plate is transferred into a 384-well plate.
Cells are washed three times with 100 μL of buffer, leaving 30 μL of buffer in each well. Using Multimek, 30 μL of Dye Loading Buffer is added into each well and incubated at 37° C., 5% CO2 for up to one hr.
After 60 min, the cells are washed three times with 100 μL of buffer, leaving 30 μL of buffer in each well. The cell plate, screening plate, and agonist addition plates are placed on the platform in the FLIPR and the door is closed. A signal test to check background fluorescence and basal fluorescence signal is performed. Laser intensity is adjusted if necessary. […]

SMILES	EC50
O=C(O)c1cc(CN2CCN(c3ccc(C(F)(F)F)cc3)CC2)c2ccccn2c1=O [Example 1, 4-oxo-1-({4-[4-(trifluoromethyl)phenyl]piperazin-1-yl}methyl)-4H-quinolizine-3-carboxylic acid]	270 nM
O=C(O)c1cc(CN2CCN(c3ccc(Br)cc3)CC2)c2ccccn2c1=O [Example 61]	132 nM
Cn1cc(N2CCN(Cc3cc(C(=O)O)c(=O)n4ccccc34)CC2)cn1 [Example 113]	408 nM
O=C(O)c1cc(CN2CCN(c3cc4ccccc4cn3)CC2)c2ccccn2c1=O [Example 133]	90 nM
O=C(O)c1cc(CN2CCN(c3ccc4sccc4c3)CC2)c2ccccn2c1=O [Example 143]	71 nM
O=C(O)c1cc(CN2CCN(c3ccc4ncsc4c3)CC2)c2ccccn2c1=O [Example 144]	81 nM
N#Cc1cc2cc(N3CCN(Cc4cc(C(=O)O)c(=O)n5ccccc45)CC3)ccc2o1 [Example 145, 1-{[4-(2-cyano-1-benzofuran-5-yl)piperazin-1-yl]methyl}-4-oxo-4H-quinolizine-3-carboxylic acid]	91 nM
N#Cc1ccc(N2CCN(Cc3cc(C(=O)O)c(=O)n4ccccc34)CC2)cc1 [Example 146, 1-{[4-(4-cyanophenyl)piperazin-1-yl]methyl}-4-oxo-4H-quinolizine-3-carboxylic acid]	616 nM
N#Cc1ccc(N2CCN(Cc3cc(C(=O)O)c(=O)n4ccccc34)CC2)cn1 [Example 147, 1-{[4-(6-cyanopyridin-3-yl)piperazin-1-yl]methyl}-4-oxo-4H-quinolizine-3-carboxylic acid]	614 nM
C=Cc1cc(N2CCN(Cc3cc(C(=O)O)c(=O)n4ccccc34)CC2)ccn1 [Example 148, 4-Oxo-1-{[4-(2-vinylpyridin-4-yl)piperazine-1-yl]methyl}-4H-quinolizine-3-carboxylic acid]	380 nM
CSc1cc(N2CCN(Cc3cc(C(=O)O)c(=O)n4ccccc34)CC2)ccn1 [Example 153, 1-({4-[2-(methylthio)pyridine-4-yl]piperazine-1-yl}methyl)-4-oxo-4H-quinolizine-3-carboxylic acid]	640 nM
CS(=O)(=O)c1cc(N2CCN(Cc3cc(C(=O)O)c(=O)n4ccccc34)CC2)ccn1 [Example 154]	1650 nM
CN1CCN(Cc2cc(C(=O)O)c(=O)n3ccccc23)C(c2cccc(F)c2)C1=O (stereo not drawn) [Example 155, 1-{[2-(3-fluorophenyl)-4-methyl-3-oxopiperazin-1-yl]methyl}-4-oxo-4H-quinolizine-3-carboxylic acid]	4900 nM
O=C(O)c1cc(CN2CCN(c3ccccc3)C(=O)C2c2cccc(F)c2)c2ccccn2c1=O (stereo not drawn) [Example 160, 1-{[2-(3-fluorophenyl)-3-oxo-4-phenylpiperazin-1-yl]methyl}-4-oxo-4H-quinolizine-3-carboxylic acid]	119 nM
O=C(O)c1cc(CN2CCOCC2)c2ccccn2c1=O [Example 179, 1-(morpholin-4-ylmethyl)-4-oxo-4H-quinolizine-3-carboxylic acid]	6900 nM
